Drawing on article PMC10975543, “Redox Reactivity of Nonsymbiotic Phytoglobins towards Nitrite” (Molecules, 2024), this text covers Kd for one compound.

The target of this assay is T1, AtHb3 (Arabidopsis thaliana, UniProt Q67XG0).
T1 construct: gene GLB3; recombinant in E. coli BL21(DE3), N-terminal 8xHis-MBP tag, TEV cleaved; class 3 truncated Hb; ferric (met) heme form
T1 sequence (Q67XG0 1-175): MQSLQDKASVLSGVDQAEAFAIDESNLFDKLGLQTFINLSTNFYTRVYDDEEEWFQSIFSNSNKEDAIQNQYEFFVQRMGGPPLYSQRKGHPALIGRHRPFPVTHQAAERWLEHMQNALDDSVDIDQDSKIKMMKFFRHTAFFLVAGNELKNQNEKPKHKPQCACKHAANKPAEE
Nature of the assay: UV-vis titration of the Soret band at […] nm. Type of assay: binding.

Turning to `O=NO` [nitrite], the Kd came to 1500 ± 500 µM.

The Kd is the free concentration of one partner at which half of the binding sites on the other are occupied at equilibrium, for simple one-to-one binding. A higher Kd goes with weaker binding.
